Our source for the EC50 values is patent US9018208B2, “Heterocycles as potassium channel modulators” (Icagen Inc., priority 2007, dated 2015).

Structures are written as SMILES. Where only a bound is given, the exact number is not on record here.

One assay deals with SH-SY5Y M-currents (KCNQ2, KCNQ3 and KCNQ5). The assay can be described thus: SH-SY5Y native cell line FLIPR assay (voltage-sensitive dye DiBAC). Format: cell-based, mouse neuroblastoma, rat glioma hybrid cell line. The settings on record: FLIPR assay, SH-SY5Y native cell line; Table 4; read-out: SH-SY5Y EC50. In a few lines: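 Response is peak DiBAC fluorescence change, normalised to the maximum from a positive control agent, sampled every 30 s over 25 min. Before compound addition, SH-SY5Y cells differentiated with PGE1 plus isomethylbutylxanthine were dye-loaded for 1 h in EBSS with […] DiBAC.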
As for `Cc1cccc2nc(NC(=O)CC(C)(C)C)c(-c3cccc(C(F)(F)F)c3)n12` [Compound 419, 3,3-dimethyl-N-(5-methyl-3-(3-(trifluoromethyl)phenyl)imidazo[1,2-a]pyridin-2-yl)butanamide], the EC50 is under 500 nM.
As for `Cc1cccc2nc(NC(=O)CC(C)C(F)(F)F)c(-c3cccc(C(F)(F)F)c3)n12` (stereo not shown) [Compound 420, 4,4,4-trifluoro-3-methyl-N-(5-methyl-3-(3-(trifluoromethyl)phenyl)imidazo[1,2-a]pyridin-2-yl)butanamide], the EC50 fell in the range of 500 to 3000 nM.

Still in this assay, the particulars now being: FLIPR assay, SH-SY5Y native cell line; Table 5; read-out: SH-SY5Y EC50.
Turning to `Cc1c(NC(=O)C(F)(F)F)nc2ccc(F)cn12` [Compound 421, 2,2,2-trifluoro-N-(6-fluoro-3-methylimidazo[1,2-a]pyridin-2-yl)acetamide], the EC50 lay within 3000 to 10000 nM.
On to `Cc1c(NC(=O)Cc2ccc(F)cc2)nc2ccc(F)cn12` [Compound 422, N-(6-fluoro-3-methylimidazo[1,2-a]pyridin-2-yl)-2-(4-fluorophenyl)acetamide], for which the EC50 fell in the range of 3000 to 10000 nM.
With `Cc1c(NC(=O)CC(C)(C)C)nc2ccc(F)cn12` [Compound 423, N-(6-fluoro-3-methylimidazo[1,2-a]pyridin-2-yl)-3,3-dimethylbutanamide], the EC50 was in the range of 3000 to 10000 nM.
The same measure, in the same setting: the same measure for `Cc1c(NC(=O)CC(F)(F)F)nc2ccc(F)cn12` [Compound 424, 3,3,3-trifluoro-N-(6-fluoro-3-methylimidazo[1,2-a]pyridin-2-yl)propanamide]: 3000 to 10000 nM; for `C=Cc1c(NC(=O)Cc2ccc(F)cc2)nc2ccc(F)cn12` [Compound 425, N-(6-fluoro-3-vinylimidazo[1,2-a]pyridin-2-yl)-2-(4-fluorophenyl)acetamide]: 500 to 3000 nM.
Regarding `C=Cc1c(NC(=O)Cc2ccc(F)cc2)nc2cc(C(F)(F)F)ccn12` [Compound 426, 2-(4-fluorophenyl)-N-(7-(trifluoromethyl)-3-vinylimidazo[1,2-a]pyridin-2-yl)acetamide], the EC50 was in the range of 500 to 3000 nM.
On to `C=Cc1c(NC(=O)CC(F)(F)F)nc2cc(C(F)(F)F)ccn12` [Compound 427, 3,3,3-trifluoro-N-(7-(trifluoromethyl)-3-vinylimidazo[1,2-a]pyridin-2-yl)propanamide], for which the EC50 was 3000 to 10000 nM.

The same assay, now with this note: SH-SY5Y native cell line, FLIPR assay (Table 3); read-out: SH-SY5Y EC50.
Consider `CC(CC(=O)Nc1nc2ccc(C(F)(F)F)cn2c1-c1cc(C(F)(F)F)ccn1)C(F)(F)F` (stereo not shown) [Compound 399, 4,4,4-trifluoro-3-methyl-N-(6-(trifluoromethyl)-3-(4-(trifluoromethyl)pyridin-2-yl)imidazo[1,2-a]pyridin-2-yl)butanamide], for which the EC50 was in the range of 500 to 3000 nM.
On the same count and under the same terms, with `O=C(Cc1ccc(F)cc1)Nc1nc2ccc(C(F)(F)F)cn2c1-c1cc(C(F)(F)F)ccn1` [Compound 400, 2-(4-fluorophenyl)-N-(6-(trifluoromethyl)-3-(4-(trifluoromethyl)pyridin-2-yl)imidazo[1,2-a]pyridin-2-yl)acetamide] the figure was under 500 nM.
As for `CC(CC(=O)Nc1nc2ccc(F)cn2c1-c1cc(C(F)(F)F)ccn1)C(F)(F)F` (stereo not shown) [Compound 401, 4,4,4-trifluoro-N-(6-fluoro-3-(4-(trifluoromethyl)pyridin-2-yl)imidazo[1,2-a]pyridin-2-yl)-3-methylbutanamide], the EC50 was in the range of 500 to 3000 nM.
Still for that read-out and setting: with `O=C(Nc1nc2ccc(F)cn2c1-c1cc(C(F)(F)F)ccn1)C1CCC(F)(F)CC1` [Compound 402, 4,4-difluoro-N-(6-fluoro-3-(4-(trifluoromethyl)pyridin-2-yl)imidazo[1,2-a]pyridin-2-yl)cyclohexanecarboxamide] the figure was under 500 nM; with `O=C(Cc1ccc(F)cc1)Nc1nc2ccccn2c1-c1cc(C(F)(F)F)ccn1` [Compound 403, 2-(4-fluorophenyl)-N-(3-(4-(trifluoromethyl)pyridin-2-yl)imidazo[1,2-a]pyridin-2-yl)acetamide], under 500 nM; with `CC(C)(C)CC(=O)Nc1nc2ccccn2c1-c1cc(C(F)(F)F)ccn1` [Compound 404, 3,3-dimethyl-N-(3-(4-(trifluoromethyl)pyridin-2-yl)imidazo[1,2-a]pyridin-2-yl)butanamide], 500 to 3000 nM.
Same read-out and setting: the same measure for `CC(CC(=O)Nc1nc2ccccn2c1-c1cc(C(F)(F)F)ccn1)C(F)(F)F` (stereo not shown) [Compound 405, 4,4,4-trifluoro-3-methyl-N-(3-(4-(trifluoromethyl)pyridin-2-yl)imidazo[1,2-a]pyridin-2-yl)butanamide]: 500 to 3000 nM; for `CC(C)(C)CC(=O)Nc1nc2ccccn2c1-c1nccs1` [Compound 406, 3,3-dimethyl-N-(3-(thiazol-2-yl)imidazo[1,2-a]pyridin-2-yl)butanamide]: 500 to 3000 nM; for `O=C(Cc1ccc(F)cc1)Nc1nc2ccccn2c1-c1nccs1` [Compound 407, 2-(4-fluorophenyl)-N-(3-(thiazol-2-yl)imidazo[1,2-a]pyridin-2-yl)acetamide]: 500 to 3000 nM.
As to `CC(CC(=O)Nc1nc2ccccn2c1-c1nccs1)C(F)(F)F` (stereo not shown) [Compound 408, 4,4,4-trifluoro-3-methyl-N-(3-(thiazol-2-yl)imidazo[1,2-a]pyridin-2-yl)butanamide], the EC50 lay within 3000 to 10000 nM.
Take `O=C(Nc1nc2ccccn2c1-c1nccs1)C1CCC(F)(F)CC1` [Compound 409, 4,4-difluoro-N-(3-(thiazol-2-yl)imidazo[1,2-a]pyridin-2-yl)cyclohexanecarboxamide]: the EC50 was in the range of 500 to 3000 nM.
On the same count and under the same terms, with `O=C(Cc1ccc(F)cc1)Nc1nc2ccc(F)cn2c1-c1cc(C(F)(F)F)ccn1` [Compound 410, N-(6-fluoro-3-(4-(trifluoromethyl)pyridin-2-yl)imidazo[1,2-a]pyridin-2-yl)-2-(4-fluorophenyl)acetamide] the figure was under 500 nM; with `O=C(Nc1nc2ccccn2c1-c1cc(C(F)(F)F)ccn1)C1CCC(F)(F)CC1` [Compound 411, 4,4-difluoro-N-(3-(4-(trifluoromethyl)pyridin-2-yl)imidazo[1,2-a]pyridin-2-yl)cyclohexanecarboxamide], under 500 nM; with `O=C(Nc1nc2ccc(F)cn2c1-c1cc(C(F)(F)F)ccn1)C1CC1(F)F` (stereo not shown) [Compound 412, 2,2-difluoro-N-(6-fluoro-3-(4-(trifluoromethyl)pyridin-2-yl)imidazo[1,2-a]pyridin-2-yl)cyclopropanecarboxamide], 3000 to 10000 nM.
Turning to `O=C(Nc1nc2ccccn2c1-c1cc(C(F)(F)F)ccn1)C1CC1(F)F` (stereo not shown) [Compound 413, 2,2-difluoro-N-(3-(4-(trifluoromethyl)pyridin-2-yl)imidazo[1,2-a]pyridin-2-yl)cyclopropanecarboxamide], the EC50 was in the range of 500 to 3000 nM.
Consider `CC(C)(C)CC(=O)Nc1nc2ccccn2c1-c1cscn1` [Compound 414, 3,3-dimethyl-N-(3-(thiazol-4-yl)imidazo[1,2-a]pyridin-2-yl)butanamide], for which the EC50 fell in the range of 3000 to 10000 nM.
In the case of `COc1ccc2nc(NC(=O)CC(C)(C)C)c(-c3nccs3)n2n1` [Compound 415, N-(6-methoxy-3-(thiazol-2-yl)imidazo[1,2-b]pyridazin-2-yl)-3,3-dimethylbutanamide], the EC50 was in the range of 3000 to 10000 nM.
`Cc1nc(-c2c(NC(=O)CC(C)(C)C)nc3ccccn23)cs1` [Compound 416, 3,3-dimethyl-N-(3-(2-methylthiazol-4-yl)imidazo[1,2-a]pyridin-2-yl)butanamide]: the EC50 is 3000 to 10000 nM.

Still in this assay, the particulars now being: SH-SY5Y native cell line, FLIPR assay (Table 6); read-out: SH-SY5Y EC50.
Regarding `CC(C)(CC(=O)Nc1nc2ccc(C(F)(F)F)cn2c1C1CC1)C(F)(F)F` [Compound 432, N-(3-cyclopropyl-6-(trifluoromethyl)imidazo[1,2-a]pyridin-2-yl)-4,4,4-trifluoro-3,3-dimethylbutanamide], the EC50 is under 500 nM.
Take `CC(C)(C)Cc1c(NC(=O)CC(C)(C)C(F)(F)F)nc2ccc(C(F)(F)F)cn12` [Compound 440, 4,4,4-trifluoro-3,3-dimethyl-N-(3-neopentyl-6-(trifluoromethyl)imidazo[1,2-a]pyridin-2-yl)butanamide]: the EC50 was under 500 nM.
Same read-out and setting: with `CC(C)(CC(=O)Nc1nc2ccc(C(F)(F)F)cn2c1C1CCCCC1)C(F)(F)F` [Compound 441, N-(3-cyclohexyl-6-(trifluoromethyl)imidazo[1,2-a]pyridin-2-yl)-4,4,4-trifluoro-3,3-dimethylbutanamide] the figure was under 500 nM; with `CC(C)(CC(=O)Nc1nc2ccc(C(F)(F)F)cn2c1C1CCCC1)C(F)(F)F` [Compound 442, N-(3-cyclopentyl-6-(trifluoromethyl)imidazo[1,2-a]pyridin-2-yl)-4,4,4-trifluoro-3,3-dimethylbutanamide], under 500 nM; with `CC(C)CCc1c(NC(=O)CC(C)(C)C(F)(F)F)nc2ccc(C(F)(F)F)cn12` [Compound 443, 4,4,4-trifluoro-N-(3-isopentyl-6-(trifluoromethyl)imidazo[1,2-a]pyridin-2-yl)-3,3-dimethylbutanamide], under 500 nM.
As to `CC(C)(CC(=O)Nc1nc2ccc(F)cn2c1CC1CCCCC1)C(F)(F)F` [Compound 444, N-(3-(cyclohexylmethyl)-6-fluoroimidazo[1,2-a]pyridin-2-yl)-4,4,4-trifluoro-3,3-dimethylbutanamide], the EC50 was under 500 nM.
With `CC1(CC(=O)Nc2nc3ccc(C(F)(F)F)nn3c2C2CC2)CCCC1` [Compound 445, N-(3-cyclopropyl-6-(trifluoromethyl)imidazo[1,2-b]pyridazin-2-yl)-2-(1-methylcyclopentyl)acetamide], the EC50 is under 500 nM.
The same measure, in the same setting: the same measure for `O=C(Nc1nc2ccc(C(F)(F)F)nn2c1C1CCCC1)c1ccc(F)c(F)c1` [Compound 447, N-(3-cyclopentyl-6-(trifluoromethyl)imidazo[1,2-b]pyridazin-2-yl)-3,4,-difluorobenzamide]: 500 to 3000 nM.

The assay is the same for the next values; noted with them: read-out: SH-SY5Y_EC50.
In the case of `Cc1c(NC(=O)CC(F)(F)F)nc2ccc(F)cn12` [Compound 424, 3,3,3-trifluoro-N-(6-fluoro-3-methylimidazo[1,2-a]pyridin-2-yl)propanamide], the EC50 was 10000 nM.

Staying with this assay, now noted: unit inferred; read-out: SH-SY5Y_EC50.
Take `Cc1cccc2nc(NC(=O)CC(C)(C)C)c(-c3cccc(C(F)(F)F)c3)n12` [Compound 419, 3,3-dimethyl-N-(5-methyl-3-(3-(trifluoromethyl)phenyl)imidazo[1,2-a]pyridin-2-yl)butanamide]: the EC50 stood at 340 nM.
